Legend:
Type in all cases: ADME
Settings in all cases: isolated protein
Albumin [1] = target: T1, Albumin (Homo sapiens, UniProt P02768); assay: Binding affinity to human serum albumin assessed as Stern-Volmer association constant at pH 7.4 and 310K by spectrofluorimetry
Albumin [2] = target: T1, Albumin; assay: Apparent binding affinity to human serum albumin at pH 7.4 and 291K by spectrofluorimetry
Albumin [3] = target: T1, Albumin; assay: Binding affinity to human serum albumin assessed as Stern-Volmer association constant at pH 7.4 and 291K by spectrofluorimetry
Albumin [4] = target: T1, Albumin; assay: Apparent binding affinity to human serum albumin at pH 7.4 and 310K by spectrofluorimetrysis
Albumin [5] = target: T1, Albumin; assay: Apparent binding affinity to human serum albumin at pH 7.4 and 301K by spectrofluorimetry
Albumin [6] = target: T1, Albumin; assay: Binding affinity to human serum albumin assessed as Stern-Volmer association constant at pH 7.4 and 301K by spectrofluorimetry
Albumin [7] = target: T1, Albumin; assay: Binding affinity to human serum albumin assessed as modified Stern-Volmer association constant at pH 7.4 and 291K by spectrofluorimetry in presence of ibuprofen
Albumin [8] = target: T1, Albumin; assay: Binding affinity to human serum albumin assessed as modified Stern-Volmer association constant at pH 7.4 and 310K by spectrofluorimetry
Albumin [9] = target: T1, Albumin; assay: Binding affinity to human serum albumin assessed as modified Stern-Volmer association constant at pH 7.4 and 291K by spectrofluorimetry in presence of warfarin

T1 sequence (P02768 whole entry): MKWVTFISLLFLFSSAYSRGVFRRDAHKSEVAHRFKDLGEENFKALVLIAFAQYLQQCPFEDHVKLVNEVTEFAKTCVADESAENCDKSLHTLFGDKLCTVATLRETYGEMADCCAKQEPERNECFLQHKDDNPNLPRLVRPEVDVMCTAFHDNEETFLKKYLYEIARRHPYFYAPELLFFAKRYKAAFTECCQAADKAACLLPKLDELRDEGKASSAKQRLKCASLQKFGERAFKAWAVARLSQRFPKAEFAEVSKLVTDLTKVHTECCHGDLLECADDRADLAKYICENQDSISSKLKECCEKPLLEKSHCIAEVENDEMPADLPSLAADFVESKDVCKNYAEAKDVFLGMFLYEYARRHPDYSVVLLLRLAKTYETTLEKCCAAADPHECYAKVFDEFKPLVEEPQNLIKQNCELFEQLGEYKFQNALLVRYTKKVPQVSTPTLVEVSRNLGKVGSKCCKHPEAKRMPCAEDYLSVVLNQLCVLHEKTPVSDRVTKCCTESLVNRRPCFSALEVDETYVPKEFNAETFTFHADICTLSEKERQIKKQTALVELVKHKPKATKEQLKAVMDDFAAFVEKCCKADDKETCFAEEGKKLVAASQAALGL

KSV (Albumin [1]): 48400 M⁻¹
Kb (Albumin [2]): 35000 M⁻¹
KSV (Albumin [3]): 76600 M⁻¹
Kb (Albumin [4]): 67300 M⁻¹
Kb (Albumin [5]): 48600 M⁻¹
KSV (Albumin [6]): 56200 M⁻¹
Ka (Albumin [7]): 114000 M⁻¹
Ka (Albumin [8]): 45900 M⁻¹
Ka (Albumin [9]): 73100 M⁻¹
Structure (SMILES): CCN(CC)Cc1cc(Nc2ccnc3cc(Cl)ccc23)ccc1O.Cl

Reference: ChEMBL document CHEMBL2057110, “Investigation of the interaction between amodiaquine and human serum albumin by fluorescence spectroscopy and molecular modeling” (Eur J Med Chem, 2012)
